Measured values from patent US20060100245A1, “Substituted biphenyl-4-carboxylic acid arylamide analogues” (Neurogen Corporation, priority 2002, published 2006).
Where two headings read alike, the source gives them in different places.

Key:
[1] = target: T1, human capsaicin receptor (VR1) (Homo sapiens, UniProt Q8NER1); assay: Capsaicin receptor binding assay ([3H]RTX competition)
T1 construct: transfected with the pBK-CMV expression construct encoding the full length human capsaicin receptor; expressed in transfected cells
Procedure, shortened: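 Membranes from HEK293 cells stably expressing full-length human VR1; competition against 60 pM [3H]RTX, 60 min at 37 °C in HEPES/sucrose buffer pH 7.4 with 0.25 mg/ml BSA. Non-specific binding defined with 1 μM unlabelled RTX; alpha1-acid glycoprotein added after termination on ice.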

human capsaicin receptor = target: T2, human capsaicin receptor (Homo sapiens, UniProt Q8NER1); assay: Calcium mobilization assay, determination of agonist activity; type: cell-based; settings: capsaicin positive control, cells expressing human capsaicin receptor; read-out: approximate EC90 concentration
T2 construct: transfected with the pBK-CMV expression construct encoding the full length human capsaicin receptor; expressed in transfected cells
Procedure: This Example illustrates representative calcium mobilization assays for use in evaluating test compounds for agonist and antagonist activity.
Cells transfected with expression plasmids (as described in Example 4) and thereby expressing human capsaicin receptor are seeded and grown to 70-90% confluency in FALCON black-walled, clear-bottomed 96-well plates (#3904, BECTON-DICKINSON, Franklin Lakes, N.J.). […]
To measure the ability of a test compound to agonize or antagonize a calcium mobilization response in cells expressing capsaicin receptors to capsaicin or other vanilloid agonist, the EC50 of the agonist capsaicin is first determined. […] Capsaicin-induced calcium mobilization is monitored using either FLUOROSKAN ASCENT (Labsystems; Franklin, Mass.) or FLIPR (fluorometric imaging plate reader system; Molecular Devices, Sunnyvale, Calif.) instruments. […] In this equation, y is the maximum fluorescence signal, x is the concentration of the agonist or antagonist (in this case, capsaicin), a is the Emax, b corresponds to the EC50 value and c is the Hill coefficient. […]
The ability of a test compound to act as an agonist of the capsaicin receptor is determined by measuring the fluorescence response of cells expressing capsaicin receptors elicited by the compound as function of compound concentration.

T1 sequence (Q8NER1 whole entry): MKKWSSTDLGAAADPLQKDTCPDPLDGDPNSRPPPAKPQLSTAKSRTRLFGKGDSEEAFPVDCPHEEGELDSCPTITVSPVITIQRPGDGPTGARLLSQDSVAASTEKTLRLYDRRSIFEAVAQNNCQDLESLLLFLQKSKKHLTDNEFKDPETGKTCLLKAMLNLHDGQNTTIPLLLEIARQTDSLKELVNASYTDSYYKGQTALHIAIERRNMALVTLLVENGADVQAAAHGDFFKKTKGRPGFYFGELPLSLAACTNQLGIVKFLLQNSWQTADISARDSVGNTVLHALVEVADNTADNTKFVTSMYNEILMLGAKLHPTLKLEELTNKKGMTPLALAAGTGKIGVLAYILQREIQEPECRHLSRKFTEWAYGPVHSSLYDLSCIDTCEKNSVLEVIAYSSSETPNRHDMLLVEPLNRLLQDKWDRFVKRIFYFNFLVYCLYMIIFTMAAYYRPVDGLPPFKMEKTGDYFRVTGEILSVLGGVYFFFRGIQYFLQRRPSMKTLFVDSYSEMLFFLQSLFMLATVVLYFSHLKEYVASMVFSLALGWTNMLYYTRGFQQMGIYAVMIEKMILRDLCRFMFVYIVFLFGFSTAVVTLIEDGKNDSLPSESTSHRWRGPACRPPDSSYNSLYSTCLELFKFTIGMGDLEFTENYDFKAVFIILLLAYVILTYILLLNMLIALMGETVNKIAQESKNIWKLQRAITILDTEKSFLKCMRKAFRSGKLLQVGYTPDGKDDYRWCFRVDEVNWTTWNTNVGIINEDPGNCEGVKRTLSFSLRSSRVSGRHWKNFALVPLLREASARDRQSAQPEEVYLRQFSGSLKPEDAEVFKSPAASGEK
T2 sequence (Q8NER1 whole entry): as above

Row | SMILES | Ki ([1]; read-out: Ki) [nM] | also measured
1 | CC(C)(C)c1ccc(NC(=O)c2ccc(-c3ccccn3)cc2)cc1 [Compound 430, N-(4-tert-Butyl-phenyl)-4-pyridin-2-yl-benzamide] | < 1000 | –
2 | CC(C)(C)c1ccc(NC(=O)c2ccc(-c3cccnc3)cc2)cc1 [Compound 431, N-(4-tert-Butyl-phenyl)-4-pyridin-3-yl-benzamide] | < 1000 | –
3 | CC(C)(C)c1ccc(NC(=O)c2ccc(-c3ccncc3)cc2)cc1 [Compound 432, N-(4-tert-Butyl-phenyl)-4-pyridin-4-yl-benzamide] | < 1000 | –
4 | CC(C)(C)c1ccc(NC(=O)c2ccc(-c3ncccn3)cc2)cc1 [Compound 433, N-(4-tert-Butyl-phenyl)-4-pyrimidin-2-yl-benzamide] | < 1000 | –
5 | CC(C)(C)c1ccc(NC(=O)c2ccc(-c3cnc4ccccc4c3)cc2)cc1 [Compound 434, N-(4-tert-Butyl-phenyl)-4-quinolin-3-yl-benzamide] | < 1000 | –
6 | CC(C)(C)c1ccc(NC(=O)c2cnc(-c3ccccc3Cl)c(Cl)c2)cc1 [Compound 435, N-(4-tert-Butyl-phenyl)-5-chloro-6-(2-chloro-phenyl)-nicotinamide] | < 1000 | –
7 | CC(C)(C)c1ccc(NC(=O)c2cnc(-c3ccccc3)c(Cl)c2)cc1 [Compound 436, N-(4-tert-Butyl-phenyl)-5-chloro-6-phenyl-nicotinamide] | < 1000 | –
8 | CC(C)(C)c1ccc(NC(=O)c2ccc(-c3ccc(F)cc3F)nc2)cc1 [Compound 437, N-(4-tert-Butyl-phenyl)-6-(2,4-difluoro-phenyl)-nicotinamide] | < 1000 | –
9 | CC(C)(C)c1ccc(NC(=O)c2ccc(-c3c(F)cccc3F)nc2)cc1 [Compound 438, N-(4-tert-Butyl-phenyl)-6-(2,6-difluoro-phenyl)-nicotinamide] | < 1000 | –
10 | Cc1cccc(C)c1-c1ccc(C(=O)Nc2ccc(C(C)(C)C)cc2)cn1 [Compound 439, N-(4-tert-Butyl-phenyl)-6-(2,6-dimethyl-phenyl)-nicotinamide] | < 1000 | –
11 | CCOc1ccc(-c2ccc(C(=O)Nc3ccc(C(C)(C)C)cc3)cn2)c(Cl)c1 [Compound 440, N-(4-tert-Butyl-phenyl)-6-(2-chloro-4-ethoxy-phenyl)-nicotinamide] | < 1000 | –
12 | CC(C)(C)c1ccc(NC(=O)c2cnc(-c3ccccc3Cl)cc2O)cc1 [Compound 441, N-(4-tert-Butyl-phenyl)-6-(2-chloro-phenyl)-4-hydroxy-nicotinamide] | < 1000 | –
13 | CC(C)(C)c1ccc(NC(=O)c2ccc(-c3ccccc3Cl)nc2)cc1 [Compound 442, N-(4-tert-Butyl-phenyl)-6-(2-chloro-phenyl)-nicotinamide] | < 1000 | –
14 | CC(C)(C)c1ccc(NC(=O)c2ccc(-c3ccccc3F)nc2)cc1 [Compound 443, N-(4-tert-Butyl-phenyl)-6-(2-fluoro-phenyl)-nicotinamide] | < 1000 | –
15 | CC(C)(C)c1ccc(NC(=O)c2ccc(-c3ccccc3CO)nc2)cc1 [Compound 444, N-(4-tert-Butyl-phenyl)-6-(2-hydroxymethyl-phenyl)-nicotinamide] | < 1000 | –
16 | CC(C)(C)c1ccc(NC(=O)c2ccc(-c3ccccc3NS(C)(=O)=O)nc2)cc1 [Compound 445, N-(4-tert-Butyl-phenyl)-6-(2-methanesulfonylamino-phenyl)-nicotinamide] | < 1000 | –
17 | CC(C)(C)c1ccc(NC(=O)c2ccc(-c3ccccc3[N+](=O)[O-])nc2)cc1 [Compound 446, N-(4-tert-Butyl-phenyl)-6-(2-nitro-phenyl)-nicotinamide] | < 1000 | –
18 | CC(C)(C)c1ccc(NC(=O)c2ccc(-c3ccccc3C(F)(F)F)nc2)cc1 [Compound 447, N-(4-tert-Butyl-phenyl)-6-(2-trifluoromethyl-phenyl)-nicotinamide] | < 1000 | –

Row | SMILES | Ki ([1]; read-out: Ki) [nM] | also measured
19 | CC(C)(C)c1ccc(NC(=O)c2ccc(-c3cccc(F)c3)nc2)cc1 [Compound 448, N-(4-tert-Butyl-phenyl)-6-(3-fluoro-phenyl)-nicotinamide] | < 1000 | –
20 | COc1cccc(-c2ccc(C(=O)Nc3ccc(C(C)(C)C)cc3)cn2)c1 [Compound 449, N-(4-tert-Butyl-phenyl)-6-(3-methoxy-phenyl)-nicotinamide] | < 1000 | –
21 | CC(C)(C)c1ccc(NC(=O)c2ccc(-c3ccc(O)cc3)nc2)cc1 [Compound 450, N-(4-tert-Butyl-phenyl)-6-(4-hydroxy-phenyl)-nicotinamide] | < 1000 | –
22 | CC(C)(C)c1ccc(NC(=O)c2ccc(-c3ccccc3N(S(C)(=O)=O)S(C)(=O)=O)nc2)cc1 [Compound 451, N-(4-tert-Butyl-phenyl)-6-[2-(N,N-dimethanesulfonyl)amino-phenyl]-nicotinamide] | < 1000 | –
23 | Cc1cccc(-c2ccc(C(=O)Nc3ccc(C(C)(C)C)cc3)cn2)c1 [Compound 452, N-(4-tert-Butyl-phenyl)-6-m-tolyl-nicotinamide] | < 1000 | –
24 | Cc1ccccc1-c1ccc(C(=O)Nc2ccc(C(C)(C)C)cc2)cn1 [Compound 453, N-(4-tert-Butyl-phenyl)-6-o-tolyl-nicotinamide] | < 1000 | –
25 | CC(C)(C)c1ccc(NC(=O)c2ccc(-c3ccccc3)nc2)cc1 [Compound 454, N-(4-tert-Butyl-phenyl)-6-phenyl-nicotinamide] | < 1000 | –
26 | CS(=O)(=O)N(c1cccnc1-c1ccc(C(=O)Nc2ccc(C(F)(F)F)cc2)cc1)S(C)(=O)=O [Compound 456, N-(4-Trifluoromethyl-phenyl)-4-[3-(N,N-dimethanesulfonyl)amino-pyridin-2-yl]-benzamide] | < 1000 | –
27 | CS(=O)(=O)N(c1cccnc1-c1ccc(C(=O)Nc2ccc(C(F)(F)F)cn2)cc1)S(C)(=O)=O [Compound 457, N-(5-Trifluoromethyl-pyridin-2-yl)-4-[3-(N,N-dimethanesulfonyl)amino-pyndin-2-yl]-benzamide] | < 1000 | –
28 | CCC1(c2ccc(NC(=O)c3ccc(-c4ncccc4F)cc3)cc2)CCC(=O)NC1=O (centres unmarked) [Compound 458, N-[4-(3-Ethyl-2,6-dioxo-piperidin-3-yl)-phenyl]-4-(3-fluoro-pyridin-2-yl)-benzamide] | – | Ki [1]: < 1000 nM
29 | Cc1ccccc1-c1ccc(C(=O)Nc2ccc(Oc3ccc(Cl)cc3)cc2)cn1 [Compound 459, N-[4-(4-Chloro-phenoxy)-phenyl]-6-o-tolyl-nicotinamide] | < 1000 | –
30 | CC(C)c1cccc(-c2ccc(C(=O)Nc3ccc4c(c3)CCC4)cn2)c1 [Compound 462, N-Indan-5-yl-6-(3-isopropyl-phenyl)-nicotinainide] | < 1000 | –
31 | COc1cccc(-c2ccc(C(=O)Nc3ccc4c(c3)CCC4)cn2)c1 [Compound 463, N-Indan-5-yl-6-(3-methoxy-phenyl)-nicotinamide] | < 1000 | –
32 | O=C(Nc1ccc2c(c1)CCC2)c1ccc(-c2cccc(OC(F)(F)F)c2)nc1 [Compound 464, N-Indan-5-yl-6-(3-trifluoromethoxy-phenyl)-nicotinamide] | < 1000 | –
33 | Cc1ccccc1-c1ccc(C(=O)Nc2ccc3c(c2)CCC3)cn1 [Compound 470, N-Indan-5-yl-6-o-tolyl-nicotinamide] | < 1000 | –
34 | O=C(Nc1ccc2c(c1)CCC2)c1ccc(-c2ccccc2)nc1 [Compound 471, N-Indan-5-yl-6-phenyl-nicotinamide] | < 1000 | –
35 | COc1cc(CNC(=O)CCCC/C=C/C(C)C)ccc1O [capsaicin] | – | EC90 (human capsaicin receptor): ~100 nM
